Laboratory results taken from patent US20110081662A1, “SCREENING METHODS FOR BONE MORPHOGENETIC MIMETICS” (THRASOS THERAPEUTICS, INC., priority 2000, published 2011).
Bridges are numbered along the chain shown (N, C = ends). Where no end group is shown, it is not given here.

What was measured:
daf-4 ECD = target: T1, daf-4 ECD (Caenorhabditis elegans, UniProt P50488); assay: BMP binding to purified daf-4 ECD (ligand blot, Scatchard analysis); parameters: species or system C. elegans
T1 construct: 1 includes additional portions on the N and C terminus; made in house; host or cells: transfected DHFR(-) CHO cell line PJ511.9.8, purified from conditioned medium
T1 sequence (P50488 with tags, fused parts or gaps): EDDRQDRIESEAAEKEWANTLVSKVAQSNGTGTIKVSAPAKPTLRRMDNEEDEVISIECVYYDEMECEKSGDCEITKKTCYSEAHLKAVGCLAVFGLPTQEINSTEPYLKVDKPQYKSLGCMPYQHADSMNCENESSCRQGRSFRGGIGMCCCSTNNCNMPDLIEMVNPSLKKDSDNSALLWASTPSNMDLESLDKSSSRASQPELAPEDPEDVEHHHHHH
Text: A novel ligand-blot technique was developed to evaluate the binding of BMP-7 to the purified daf-4 ECD.

[1] = tested on: BMP-7 receptor-enriched plasma membrane fraction of ROS cells; assay: Radio-ligand receptor assay (displacement of 125I-labeled BMP-7); type: binding, rat
Protocol: Radio-ligand receptor Assay: The receptor-binding activities of various BMP ligands (New York Public Health Labs, Albany, N.Y.) were determined by an equilibrium displacement binding isotherm assay using BMP-7 receptor-enriched plasma membrane fraction of ROS cells (ATCC 17-2.8) and ^125I-labeled BMP-7 (NEN, Billerica, Mass.) as ligand. Purified BMP-7 was radio-iodinated BMP-7 to a specific activity of 70-78 uCi/ug by a modified procedure of lactoperoxidase method (Schneyer, A. L., et al., Endocrinology 119, 1446-1453 (1986)). The percent bindability of radioiodinated BMP-7 to excess receptor is 30-37%. Receptors from ROS cells are obtained by a procedure previously described (Dattatreyamurty, B., et al., (1986) J. Biol. Chem. 261.). […] In a typical assay, fixed amounts of ^125I-labeled sol. BMP-7 (−80.000 cpm) were incubated with a fixed amount of receptor-enriched plasma membrane fraction in the presence (5 ug. for non-specific binding) or absence of excess unlabeled BMP-7 (for total binding). Displacement curves were generated with increasing concentrations of BMP-7 standard preparation (5-2000 ng). The assay incubations were carried out in a reaction volume of 300 μl with shaking for 22 hrs. at 4° C. Bound and unbound ^125I-labeled BMP-7 were separated by centrifugation (30,500×g. 30 minutes). The supernatants were aspirated and pellets washed before counting in a gamma counter (Packard Instr. Downers Grove, Ill.). The concentration of test agent required to give 50% inhibition of total specific binding of ^125I-labeled BMP-7 ^(ED50^) was calculated from competitive data.

[2] = tested on: BMP-7 induced and basal alkaline phosphatase activity in ROS cells (rat Osteosarcoma 17/2.8); assay: ROS cell based alkaline phosphatase assay; conditions: for IC50: peptide together with BMP-7 (1.33 nM), ROS cells, 2 days, read-out: peptide concentration giving 50% inhibition of cellular responsiveness to BMP-7
Protocol: ROS Cell Based Alkaline Phosphatase Assays: BMP-7 and test agents that bind BMP-7 receptors were analyzed by in vitro bioassay. This assay defines the role of these test agents at the receptor-binding site. It is believed that some of the test agents can effectively interact with receptors and inhibit BMP-7 induced target cell responsiveness, thereby acting as functional antagonists. Alternatively, these agents may mimic BMP-7 functions inducing alkaline phosphatase activity in ROS cells, thus acting as functional agonists. An assay procedure as described by Maliakal, J. C., et al., Growth Factors 11, 227-234, (1994) determined the biological activities of BMP-7 peptides. In a typical experiment, rat Osteosarcoma (17/2.8) cells were plated in 96 well plates (3.0×10^4 cells/well) and incubated overnight at 37 C in 5-6% CO2 incubator. Next day, the plates were examined to make sure that cells are healthy & confluent. Cells were treated with increasing concentrations of BMP-7 standard (1-10,000 ng/ml) or test agents (0.02-200 μM) or appropriate concentrations of test agent alone or with BMP-7 standard prepared in medium containing 1% FBS and incubated for 2 days at 37 C in 5-6% CO2 incubator. The cellular content of alkaline phosphatase activity was determined by the method of Reddi, A. H. & Huggins, C. B. Proc. Natl. Acad. Sci. USA 69, 1601-1605 (1972). Enzyme estimations were routinely carried out in 96 well plates. Following removal of culture medium, cells were washed with pre-warmed PBS (150 μl) and further incubated in 100 μl of pre-warmed 1% Triton X-100 for 30 minutes at 37 C. Plates were centrifuged for 10 minutes at full speed, and recovered samples (each 15 μl) were assayed for enzyme activity by adding 90 μl p-nitrophenyl phosphate (Sigma, St. Louis, Mo.) as a substrate in 0.05 M glycine-NaOH buffer, pH 9.3 and incubating for 20 minutes at 37 C. The reaction was stopped by adding 75 ul of 0.2 N NaOH/well and absorbance at 405/490 nm is measured on a Dynatech MR 700 plate reader (Dynatech Laboratories, U.K.). Results are expressed as concentration of peptide/small molecule inhibitor (with antagonist activity) required to give 50% inhibition of maximum response to BMP-7 standard. The activities of test agents that stimulate cell responsiveness (with agonist activity), are expressed relative to BMP-7 standard.

ECD of daf-4 receptor = target: T2, ECD of daf-4 receptor (Caenorhabditis elegans, UniProt P50488); assay: Type II receptor-based HTS rapid solid-phase assay; type: binding, C. elegans; conditions: ECD immobilized on PVDF membrane, 18 h, room temperature
T2 construct: 1 includes additional portions on the N and C terminus; made in house; host or cells: transfected DHFR(-) CHO cell line PJ511.9.8, purified from conditioned medium
T2 sequence (P50488 with tags, fused parts or gaps): T1 sequence (P50488 with tags, fused parts or gaps)
Text: Preparation of type II Receptor ECD: Highly purified extracellular domain (ECD) of the type II receptor daf-4 was used in this assay. The ECD of the daf-4 receptor was cloned and vectors (pCMV5 expression vectors, daf-4 sequence including the mammalian consensus start site and the hexa-histidine sequence tag) are constructed for the expression of this molecule in mammalian cells. In this construct, the ECD has been linked to a hexa-Histadine sequence tag for subsequent purification and detection. The transfected DHFR(−) CHO cell line PJ511.9.8 has been used for the daf-4 expression as outlined below. This cloning method can also be utilized with other bone morphogenetic proteins.
Purification of daf-4 ECD: A purification protocol to process large volumes of conditioned media (3.5 L/week) was developed. The procedure involves initial isolation of daf-4 ECD by using Talon (Pharmacia Tech.) Immobilized metal affinity column. As daf-4 ECD protein is linked to a hexa-His sequence, the protein is bound to the metal affinity column and is subsequently eluted by imidazoic ([…]) containing buffer. […] The purified preparation was analyzed by reversed phase HPLC. […]
HTS assay procedure: BMP-7 binding activity was determined by a rapid solid-phase assay using ^125I-labeled BMP-7 as ligand and highly purified ECD of daf-4 as type II receptor. […]

[3] = lower peptide concentrations (0.6-60 μM)

Substance	effect on basal cell responsiveness (basal alkaline phosphatase activity) ([2]; peptide alone)	behaviour of peptide on BMP-7 induced cell responsiveness ([2]; peptide together with BMP-7)	IC50 [2]	further results
BMP-4: bone morphogenetic protein				binding to extracellular domain of daf-4 (daf-4 ECD): readily binds
CCFINPETVCC, SEQ I.D NO. 6; cyclized (disulfide (positions not given here); also: cyclized (mode not given here); listed as Homo sapiens) [Peptide H-2C]	inhibiting	antagonist	5 µM	effect on binding of 125I-labeled BMP-7 to the receptor ([1]; peptide at 8 μM): potentiated
CELYVSFRDLGWQDWIIAPEGYAAYC, SEQ I.D NO. 3; BMP-7 finger 1 peptide with cyclized ends (disulfide 1-26 (inferred); listed as Homo sapiens) [Peptide F1-1]		antagonist	20 µM	peptide concentration effective to inhibit basal cellular responsiveness ([2]; peptide alone): 52 to 260 µM
CFRDLGWQDWIIAPC, SEQ I.D NO. 4; 15 residue peptide cyclized at the ends (disulfide 1-15 (inferred); listed as Homo sapiens) [Peptide F1-2]	weakly inhibiting	antagonist	10 µM	activity in radioligand receptor assay [1]: relatively weak activity; concentration required to inhibit the binding of 125I-labeled BMP-7 to the receptor ([1]; ROS cell plasma membranes): 179 µM
CLNAISVLYFDDSSNVILKKYRNMVVRC, SEQ ID NO. 10; cyclized (disulfide 1-28 (inferred); listed as Homo sapiens) [Peptide F2-1]	effectively inhibited	effectively inhibited	8 µM	
CYFDDSSNVIC SEQ I.D NO. 7; 9 residues, ends cyclized (disulfide 1-11 (inferred); listed as Homo sapiens) [Peptide F2-2]				effect on responsiveness to BMP-7 at higher concentrations ([2]; higher peptide concentrations (above 0.6-60 μM)): inhibited; behaviour of peptide on BMP-7 induced cell responsiveness at lower concentrations [2, 3]: weak agonist; potentiation of BMP-7 induced cell responsiveness [2, 3]: 20%
CYFDDSSNVICKKYRS, SEQ I.D NO. 9; 11 residue loop with 5 residue C-terminal extension (disulfide 1-11; listed as Homo sapiens) [Peptide F2-3]	no significant effect	agonistic		percent increase in BMP-7 response (relative to the absence of peptide) ([2]; peptide 0.01 μM, sub-maximal BMP-7, P<0.001): 53%; percent increase in BMP-7 response (relative to the absence of peptide) ([2]; peptide 0.1 μM, sub-maximal BMP-7, P=0.007): 54%; percent increase in BMP-7 response (relative to the absence of peptide) ([2]; peptide 1 μM, sub-maximal BMP-7, P=0.01): 48%; inhibition of 125I-labeled BMP-7 binding to the ECD of daf-4 receptor (ECD of daf-4 receptor): 75%
F2-2c: CIVNSSDDFYC SEQ I.D NO. 8; control peptide, residues of F2-2 in reverse order (disulfide 1-11 (inferred); listed as Homo sapiens) [Peptide F2-2c, reference compound]	no effect	no effect		activity in radioligand receptor assay [1]: inactive
H-1: CAFPLNSYMNATNHAIVQTLVHFINPETVPKC SEQ ID NO 5; heel peptide, cyclized (disulfide 1-32 (inferred); listed as Homo sapiens) [Peptide H-1]	effective only at very high concentrations	weak antagonist		concentrations required to inhibit the BMP-7 induced cell response ([2]; peptide together with BMP-7): 44 to 220 µM
